Patent US10391148B2, “Method of prevention and inhibition of preterm labor” (Wayne State University, priority 2016, dated 2019)
“Also recorded” adds a separate entry of the source.

B1: IL-33: interleukin 33 cytokine (R&D 3625-IL-010 or Peprotech 200-33); human IL-33 is SEQ ID NO: 5 (protein, listed as Homo sapiens)
chain: MKPKMKYSTNKISTAKWKNTASKALCFKLGKSQQKAKEVCPMYFMKLRSGLMIKKEACYFRRETTKRPSLKTGRKHKRHLVLAACQQQSTVECFAFGISGVQKYTRALHDSSITGISPITEYLASLSTYNDQSITFALEDESYEIYVEDLKKDEKKDKVLLSYYESQHPSNESGDGVDGKMLMVTLSPTKDFWLHANNKEHSVELHKCEKPLPDQAFFVLHNMHSNCVSFECKTDPGVFIGVKDNHLALIKVDSSENLCTENILFKLSET
B2: IFN-γ: cytokine, Peprotech 300-02 (protein, UniProt P01579 24-161, looked up)
Interferon gamma: QDPYVKEAENLKKYFNAGHSDVADNGTLFLGILKNWKEESDRKIMQSQIVSFYFKLFKNFKDDQSIQKSVETIKEDMNVKFFNSNKKKRDDFEKLTNYSVTDLNVQRKAIHELIQVMAELSPAAKTGKRKRSQMLFRG
B3: IL-10: cytokine, Peprotech 200-10 (protein, UniProt P22301 19-178, looked up)
Interleukin-10: SPGQGTQSENSCTHFPGNLPNMLRDLRDAFSRVKTFFQMKDQLDNLLLKESLLEDFKGYLGCQALSEMIQFYLEEVMPQAENQDPDIKAHVNSLGENLKTLRLRLRRCHRFLPCENKSKAVEQVKNAFNKLQEKGIYKAMSEFDIFINYIEAYMTMKIRN
B4: IL-4: T helper type 2 cytokine, Peprotech 200-04 (protein, UniProt P05112 25-153, looked up)
Interleukin-4: HKCDITLQEIIKTLNSLTEQKTLCTELTVTDIFAASKNTTEKETFCRAATVLRQFYSHHEKDTRCLGATAQQFHRHKQLIRFLKRLDRNLWGLAGLNSCPVKEANQSTLENFLERLKTIMREKYSKCSS
B5: IL-25: T helper type 2 cytokine, R&D 1258-IL-025 (protein, UniProt Q9H293 33-177, looked up)
Interleukin-25: YSHWPSCCPSKGQDTSEELLRWSTVPVPPLEPARPNRHPESCRASEDGPLNSRAISPWRYELDRDLNRLPQDLYHARCLCPHCVSLQTGSHMDPRGNSELLYHNQTVFYRRPCHGEKGTHKGYCLERRLYRVSLACVCVRPRVMG

Legend:
[1] = tested on: PIBF1 expression by human peripheral blood B cells; assay: PIBF1 expression by purified human peripheral blood IgD+ B cells after stimulation (qRT-PCR, Western Blot); assay type: cell-based; settings: 2 days (3 days in FIG. 4A), 100 ng/ml cytokine, 1 ng/ml TGF-β, 1 μM progesterone, vs medium control
Description: Placentas and the attached chorioamniotic membranes were obtained after delivery. In each case, several random strips of the chorioamniotic membranes located at different regions of the choriodecidua were embedded in rolls in optimal cutting temperature (OCT) compound (Sakura Finetek 4583), frozen in liquid nitrogen and stored at −80° C. for immunofluorescence analysis. Choriodecidual tissues were scraped from the chorionic membranes that had blood clots removed, and digested with 0.2% (w/v) Clostridium histolyticum Collagenase V (Sigma-Aldrich C9263) in RPMI-1640 with 10% fetal bovine serum (Thermo Fisher Scientific 26140-079) at 37° C. with gentle agitation for 45 minutes. Cells released from the tissues were cleaned by being passed through a 100 μm cell strainer and centrifuged on a Ficoll gradient. Peripheral blood leukocytes of anonymous healthy donors after leukophoresis were obtained from the Southeast Michigan branch of American Red Cross. Peripheral blood mononuclear cells (PBMCs) were isolated using Histopaque-1077 (Sigma-Aldrich 10771) following the manufacturer's instruction. Red blood cells were lysed using an ammonium-chloride-potassium (ACK) lysing buffer (Thermo Fisher Scientific A1049201). IgD+B cells were purified from PBMCs by magnetic-activated cell sorting (MACS) with a biotinylated goat F(ab′)2 anti-human IgD antibody and anti-biotin magnetic microbeads (Miltenyi Biotec) as described in Chen, K., et al., Nat Immunol 10, 889-898 (2009). The purity of the IgD+B cells ranged from 92% to 99% as determined by flow cytometry with CDI9 staining. CD19+ B cells were similarly separated from PBMCs using a biotinylated mouse anti-human CD19 (clone HIB19) antibody, with purity ranging from 93% to 97% as determined by flow cytometry using a different clone (SJ25C1) of CD19 antibody.
Human PMBCs, IgD+B cells, CD19+ B cells or PBMCs depleted of CD19+ B cells were cultured in RPMI-1640 medium (Sigma-Aldrich R8578) supplemented with 2 mM L-glutamine, 2 mg/ml NaHCO3, 100 U/ml penicillin, 100 µg/ml streptomycin, […] amphotericin B and 10% FBS. Cells were stimulated with 100 ng/ml IL-33 (R&D 3625-IL-010 or Peprotech 200-33), 1 μM progesterone (Sigma-Aldrich P0130), IL-4 (Peprotech 200-04), IL-10 (Peprotech 200-10), IL-17A (Peprotech 200-17), IL-25 (R&D 1258-IL-025), IFN-γ (Peprotech 300-02), TGF-β (R&D 240-B-010/CF), TNF (210-TA-020) or TSLP (Peprotech 300-62). RNA or protein expression was analyzed after 2 days.
RNA was extracted from cells or tissues using TRIzol (Thermo Fisher Scientific 15596026). cDNA synthesis was performed using the Superscript III first strand synthesis system (Thermo Fisher Scientific 188080051) in a thermocycler (Bio-Rad T100). qRT-PCR was performed with Power SYBR Green PCR Master Mix (Thermo Fisher Scientific 4367660) in a StepOnePlus instrument (Applied Biosystems) using pairs of sense and anti-sense primers targeted at the genes of interest (Tables 2, 3).
Cells were pelleted and washed twice with cold PBS and lysed in a pH 8.0 protein extraction buffer containing 20 mM Tris-HCl, 150 mM NaCl, 1% IGEPAL CA-630 (Sigma-Aldrich 18896), 0.1% sodium dodecyl sulfate (SDS), 1 mM EDTA and protease and phosphatase inhibitor cocktail on ice for 30 minutes. For protein extraction from mouse uterus and human chorioamniotic membranes, the tissue was washed twice with PBS to remove blood and homogenized in the above protein extraction buffer with a tissue tearor (Biospec Products 985370), followed by 3 rounds of sonication at 30% maximum power for 5 seconds per round using a sonifier (Thermo Fisher Scientific Q500). Supernatants were collected after centrifugation, heated at 98° C. in an SDS buffer with 4% β-mecaptoethanol for 5 minutes to denature proteins. Proteins were resolved in 4-20% Bis-Tris gels (GenScript M42012) and transferred to 0.45 μm nitrocellulose membranes (Bio-Rad 1620115). […]

[2] = tested on: pregnant female μMT mice (LPS-induced PTL); assay: LPS-induced preterm labor in pregnant μMT mice: preterm delivery and neonatal/fetal mortality; assay type: in vivo, mouse; settings: read on gd 17.5, fPIBF1 1 μg (800 ng in method), cPIBF1 300 ng, vs PBS; for rate of preterm delivery (PTL): protein intravenous on gd 16.5 three hours before 5 μg intraperitoneal LPS
Description: Six to ten-week old virgin female C57BL/6 (WT) or μMT mice were mated with male Balb/c mice. Female mice were examined daily in the early morning for the presence of a vaginal plug, which denoted gestational day (gd) 0.5. In the late morning of gd 16.5, pregnant female mice were intraperitoneally administered with 200 μl sterile PBS or 200 μl sterile PBS containing 0.5, 2.5, 5, 10 or 20 μg lipopolysaccharides (LPS) from Salmonella enterica serotype typhimurium (Sigma-Aldrich L6143). The various doses of LPS were given to the mice randomly. In some experiments, splenic B cells of 5 to 8-week old virgin female WT or IL-10−/− mice were purified using a mouse resting B cell negative isolation kit (Miltenyi Biotec 130-090-862) to 94% to 99% purity as determined by CD19 staining. 107 purified B cells were adoptively transferred in 200 μl sterile PBS into pregnant female μMT mice on gd 14.5 prior to LPS administration on gd 16.5. In some other experiments, 200 μl sterile PBS or 200 μl sterile PBS containing 800 ng recombinant full-length PIBF1 (fPIBF1) (aa 1-757 (SEQ ID NO:11, with an N-terminal glutathione-S-transferase (GST) tag of 232 amino acids, Abnova H00010464-P01) or 300 ng of a recombinant C-terminal fragment of PIBF1 (cPIBF1) (aa 660-755 (SEQ ID NO:12), with an N-terminal glutathione-S-transferase (GST) tag of 232 amino acids, Abnova H00010464-Q01) was intravenously administered to pregnant female μMT mice on gd 16.5 three hours prior to intraperitoneal LPS administration. 24 hours after LPS administration, female mice were examined for delivery and death of delivered pups if delivery occurred. They were then sacrificed for the examination of neonatal/fetal mortality, which was calculated as the total number of dead delivered pups and dead fetuses divided by the total number of implantation sites. Uteri were collected, briefly washed in PBS and processed for RNA and protein extraction or flow cytometry. The people performing the analysis were not blinded to the genotype or treatment of the mice.
The sample size was calculated based on the effect size derived from preliminary data at 5% significance level and 80% power using the software G*Power 3.1. Sample availability exceeded the estimated sample size. Results are expressed as mean±S.E.M. Percentage data were subjected to square root transformation prior to statistical analysis to verify test assumptions of equal variance. Statistical difference in the rate of PTL between different strains of mice or different treatment groups was assessed by Fisher's exact test. Statistical difference in neonatal/fetal mortality was assessed by Mann-Whitney U test. For flow cytometry and qRT-PCR data, Shapiro-Wilk test was used to determine the normality of the data. Statistical significance was assessed by Student's t-test for normally distributed data and Mann-Whitney U test for non-normally distributed data. p values <0.05 were considered statistically significant.

| Molecule | PIBF1 expression by human peripheral blood B cells (PIBF1 transcript fold change, Western Blot) [1] | further results |
| --- | --- | --- |
| TSLP: T helper type 2 cytokine, Peprotech 300-62 [reference compound] | only IL-33 induced PIBF1 expression; also recorded: do not induce |  |
| cPIBF1: recombinant C-terminal fragment of PIBF1, aa 660-755, SEQ ID NO:12, N-terminal GST tag, Abnova H00010464-Q01 |  | neonatal/fetal mortality ([2]; protein intravenous on gd 16.5 before 5 μg intraperitoneal LPS): neither mitigated; rate of preterm delivery (PTL) [2]: neither mitigated; rate of preterm delivery (PTL) ([2]; listed as C-terminal fragment of PIBF1): does not protect |
| TGF-β: cytokine, R&D 240-B-010/CF [reference compound] | had no effect; also recorded: do not induce |  |
| CC(=O)[C@H]1CC[C@H]2[C@@H]3CCC4=CC(=O)CC[C@]4(C)[C@H]3CC[C@]12C [progesterone, reference compound] | known inducer of PIBF1 |  |
| B1 | promoted PIBF1 expression |  |
| B2 | had no effect; also recorded: do not induce |  |
| B3 | had no effect; also recorded: do not induce |  |
| B4 | only IL-33 induced PIBF1 expression; also recorded: do not induce |  |
| B5 | only IL-33 induced PIBF1 expression; also recorded: do not induce |  |
